Where two headings read alike, the source gives them in different places.
How the values were obtained:
[1] = tested on: hiPSC-CMs
[2] = tested on: patient cardiac function; conditions: patients; abbreviations in table footnote; ref Table S1 in Sharma et al. 10; cited from earlier work
[3] = tested on: hiPSC-CMs; conditions: cited from earlier work; for hiPSC-CM cytotoxicity (in words): hiPSC-CMs
[4] = tested on: hiPSC-CMs; conditions: cited from earlier work
[5] = tested on: hiPSC-CMs; conditions: cited from earlier work; remark: listed apart in the source
[6] = tested on: hiPSC-CMs; conditions: cited from earlier work; remark: listed apart in the source
[7] = 0 to 1, average of normalized CoB and LD50 corrected by Cmax, without EC or AE
[8] = concentration at which 50% loss in hiPSC-CM viability is observed, 72 h

Row | SMILES | Normalized CSI-Lite (CSINLITE) ([1]; human) | Clinically reported cardiotoxicity [2] | LD50 [3] [µM] | Normalized CSI (CSIN) [4] | hiPSC-CM contractility alteration (in words) [5] | hiPSC-CM cytotoxicity (in words) [3] | Normalized CSI-Lite (CSINLITE) [1, 7] | LD50 [3, 8] [µM] | Effect on hiPSC-CM action potential / electrophysiology (in words) [6]
1 | CN(C)C/C=C/C(=O)Nc1cc2c(Nc3ccc(F)c(Cl)c3)ncnc2cc1O[C@H]1CCOC1 [Afatinib] | 0.515 | None | 12.30 | 0.444 | – | – | – | – | –
2 | CNC(=O)c1ccccc1Sc1ccc2c(/C=C/c3ccccn3)n[nH]c2c1 [Axitinib] | 1.000 | HF (rare), Hy | – | 1.000 | does not substantially alter | does not substantially alter | – | – | –
3 | COc1cc(Nc2c(C#N)cnc3cc(OCCCN4CCN(C)CC4)c(OC)cc23)c(Cl)cc1Cl [Bosutinib] | – | – | – | – | – | – | 0.423 | 12.39 | –
4 | COc1cc2nccc(Oc3ccc(NC(=O)C4(C(=O)Nc5ccc(F)cc5)CC4)cc3)c2cc1OC [Cabozantinib] | 1.000 | None^b | – | 0.769 | – | – | – | – | –
5 | C[C@@H](Oc1cc(-c2cnn(C3CCNCC3)c2)cnc1N)c1c(Cl)ccc(F)c1Cl [Crizotinib] | – | QT, Brady | 8.60 | 0.063 | – | – | 0.067 | – | –
6 | CC(C)(C)c1nc(-c2cccc(NS(=O)(=O)c3c(F)cccc3F)c2F)c(-c2ccnc(N)n2)s1 [Dabrafenib] | – | – | – | 0.459 | – | – | 0.561 | 100.68 | –
7 | Cc1nc(Nc2ncc(C(=O)Nc3c(C)cccc3Cl)s2)cc(N2CCN(CCO)CC2)n1 [Dasatinib] | 0.599 | QT, PE, Hy | – | 0.524 | – | – | – | 42.00 | –
8 | COc1cccc2c1C(=O)c1c(O)c3c(c(O)c1C2=O)C[C@@](O)(C(=O)CO)C[C@@H]3O[C@H]1C[C@H](N)[C@H](O)[C@H](C)O1 [Doxorubicin] | 0.008 | HF, LV^a | – | 0.010 | – | – | – | 0.78 | –
9 | C#Cc1cccc(Nc2ncnc3cc(OCCOC)c(OCCOC)cc23)c1 [Erlotinib] | 0.570 | MI (rare) | 87.60 | 0.653 | – | – | – | – | –
10 | COc1cc2ncnc(Nc3ccc(F)c(Cl)c3)c2cc1OCCCN1CCOCC1 [Gefitinib] | – | None | – | – | – | – | – | – | –
11 | C=CC(=O)N1CCC[C@@H](n2nc(-c3ccc(Oc4ccccc4)cc3)c3c(N)ncnc32)C1 [Ibrutinib] | 0.580 | – | – | 0.507 | – | – | – | – | –
12 | CS(=O)(=O)CCNCc1ccc(-c2ccc3ncnc(Nc4ccc(OCc5cccc(F)c5)c(Cl)c4)c3c2)o1 [Lapatinib] | 0.190 | LV, QT^b | – | 0.209 | – | – | – | 100.76 | –
13 | Cc1cn(-c2cc(NC(=O)c3ccc(C)c(Nc4nccc(-c5cccnc5)n4)c3)cc(C(F)(F)F)c2)cn1 [Nilotinib] | 0.148 | QT, LV, Vas^a | 29.00 | – | – | – | – | – | –
14 | Cc1ccc(Nc2nccc(N(C)c3ccc4c(C)n(C)nc4c3)n2)cc1S(N)(=O)=O [Pazopanib] | – | QT, LV (rare)^b | – | 0.671 | – | – | 1.000 | – | –
15 | Cc1ccc(C(=O)Nc2ccc(CN3CCN(C)CC3)c(C(F)(F)F)c2)cc1C#Cc1cnc2cccnn12 [Ponatinib] | – | – | – | – | – | – | 0.225 | 4.30 | –
16 | CNC(=O)c1cc(Oc2ccc(NC(=O)Nc3ccc(Cl)c(C(F)(F)F)c3)c(F)c2)ccn1 [Regorafenib] | – | MI, Hy^b | – | 0.010 | – | – | 0.010 | 7.10 | –
17 | CNC(=O)c1cc(Oc2ccc(NC(=O)Nc3ccc(Cl)c(C(F)(F)F)c3)cc2)ccn1 [Sorafenib] | 0.003 | QT, LV, HF, MI, Hy | 3.40 | 0.004 | – | highly cytotoxic to hiPSC-CMs | – | – | –
18 | CCN(CC)CCNC(=O)c1c(C)[nH]c(/C=C2\C(=O)Nc3ccc(F)cc32)c1C [Sunitinib] | 0.292 | HF, LV, MI, QT, Hy^b | 12.70 | 0.218 | – | – | – | – | –
19 | CC(=O)Nc1cccc(-n2c(=O)n(C3CC3)c(=O)c3c(Nc4ccc(I)cc4F)n(C)c(=O)c(C)c32)c1 [Trametinib] | 1.000 | – | – | – | – | – | – | 66.80 | –
20 | COc1cc2c(Nc3ccc(Br)cc3F)ncnc2cc1OCC1CCN(C)CC1 [Vandetanib] | – | QT, TdP, SCD, HF, Hy^a | – | 0.041 | elicited arrhythmias and alterations in hiPSC-CM contractility | – | 0.056 | 20.60 | caused changes in hiPSC-CM electrophysiology and action potential duration
21 | CCCS(=O)(=O)Nc1ccc(F)c(C(=O)c2c[nH]c3ncc(-c4ccc(Cl)cc4)cc23)c1F [Vemurafenib] | – | – | – | 0.003 | – | – | 0.002 | 32.10 | –

— paper PMC6502639 (Nature protocols, 2018)
